According to ChEMBL document CHEMBL2073812, “Functional analysis of candidate ABC transporter proteins for sitosterol transport” (Biochim Biophys Acta, 2002):

Assays:
[1] = biological target: ATP-dependent translocase ABCB1 (Homo sapiens, UniProt P08183); test: TP_TRANSPORTER: Flow cytometry in MDR1-expressing NIH3T3 cells; assay type: functional, cell-based; details: mouse
[2] = biological target: T1, Bile salt export pump (Rattus norvegicus, UniProt O70127); test: TP_TRANSPORTER: inhibition of taurocholate uptake (taurocholate: 2 uM, beta-sitosterol: 10 uM) in membrane vesicles of Bsep-expressing […] cells; assay type: functional, cell membranes, Membrane vesicle; details: sf9, 10 µM
T1 sequence (O70127 whole entry): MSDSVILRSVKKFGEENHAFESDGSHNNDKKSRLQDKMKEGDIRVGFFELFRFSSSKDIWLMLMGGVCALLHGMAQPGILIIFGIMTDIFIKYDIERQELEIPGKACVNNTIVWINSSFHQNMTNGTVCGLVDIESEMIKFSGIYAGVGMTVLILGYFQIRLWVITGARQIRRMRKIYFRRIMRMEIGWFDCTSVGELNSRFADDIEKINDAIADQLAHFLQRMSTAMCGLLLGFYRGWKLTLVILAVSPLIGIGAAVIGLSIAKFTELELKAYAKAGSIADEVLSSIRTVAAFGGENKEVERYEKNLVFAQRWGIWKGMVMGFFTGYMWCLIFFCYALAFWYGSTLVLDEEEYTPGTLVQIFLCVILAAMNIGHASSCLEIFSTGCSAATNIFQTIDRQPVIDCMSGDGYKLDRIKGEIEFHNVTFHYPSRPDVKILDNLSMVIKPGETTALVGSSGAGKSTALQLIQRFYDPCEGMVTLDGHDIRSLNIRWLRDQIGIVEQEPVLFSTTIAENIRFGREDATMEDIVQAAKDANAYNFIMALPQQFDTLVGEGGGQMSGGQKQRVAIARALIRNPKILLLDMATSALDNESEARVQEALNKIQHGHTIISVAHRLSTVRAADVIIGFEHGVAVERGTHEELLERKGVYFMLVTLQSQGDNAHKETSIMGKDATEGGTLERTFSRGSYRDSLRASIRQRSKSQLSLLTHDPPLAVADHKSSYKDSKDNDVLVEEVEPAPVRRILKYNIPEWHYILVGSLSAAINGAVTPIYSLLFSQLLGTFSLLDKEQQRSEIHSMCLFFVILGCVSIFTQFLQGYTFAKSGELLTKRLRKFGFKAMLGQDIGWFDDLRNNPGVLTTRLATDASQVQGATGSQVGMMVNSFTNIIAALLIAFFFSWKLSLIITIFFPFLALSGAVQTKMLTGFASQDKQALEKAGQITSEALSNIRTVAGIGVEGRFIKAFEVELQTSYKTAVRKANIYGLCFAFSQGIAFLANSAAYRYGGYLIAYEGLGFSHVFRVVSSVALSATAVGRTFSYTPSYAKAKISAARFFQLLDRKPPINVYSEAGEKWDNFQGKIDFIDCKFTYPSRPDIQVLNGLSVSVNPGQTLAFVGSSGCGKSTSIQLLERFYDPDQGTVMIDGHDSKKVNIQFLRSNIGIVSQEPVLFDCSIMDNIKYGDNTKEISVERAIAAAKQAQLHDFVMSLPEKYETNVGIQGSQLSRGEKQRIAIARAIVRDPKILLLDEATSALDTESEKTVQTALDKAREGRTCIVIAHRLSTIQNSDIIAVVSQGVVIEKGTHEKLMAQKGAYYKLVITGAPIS

[3] = biological target: T2, Broad substrate specificity ATP-binding cassette transporter ABCG2 (Mus musculus, UniProt Q7TMS5); test: TP_TRANSPORTER: Flow cytometry in lymphocytes from Mdr1a/b-/- mice; assay type: functional, cell-based; details: lymphocyte
T2 sequence (Q7TMS5 whole entry): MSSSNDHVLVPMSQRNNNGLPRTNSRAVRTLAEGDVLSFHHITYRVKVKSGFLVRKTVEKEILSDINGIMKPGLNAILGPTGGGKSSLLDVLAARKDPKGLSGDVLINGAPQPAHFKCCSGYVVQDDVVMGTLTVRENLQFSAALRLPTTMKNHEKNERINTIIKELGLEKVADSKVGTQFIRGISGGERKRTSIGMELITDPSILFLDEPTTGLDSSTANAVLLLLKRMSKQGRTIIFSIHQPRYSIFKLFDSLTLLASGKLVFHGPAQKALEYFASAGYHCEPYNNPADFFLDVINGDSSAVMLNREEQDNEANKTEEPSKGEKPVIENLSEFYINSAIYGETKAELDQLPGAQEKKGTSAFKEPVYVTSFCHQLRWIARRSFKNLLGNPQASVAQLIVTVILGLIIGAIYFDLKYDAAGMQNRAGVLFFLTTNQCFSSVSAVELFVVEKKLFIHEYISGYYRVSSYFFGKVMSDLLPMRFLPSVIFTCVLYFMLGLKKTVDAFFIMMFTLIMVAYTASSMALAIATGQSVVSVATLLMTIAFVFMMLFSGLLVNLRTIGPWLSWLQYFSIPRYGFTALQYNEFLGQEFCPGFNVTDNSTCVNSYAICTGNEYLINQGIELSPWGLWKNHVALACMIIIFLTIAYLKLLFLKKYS

[4] = biological target: Multidrug resistance-associated protein 1 (Mus musculus, UniProt O35379); test: TP_TRANSPORTER: Flow cytometry in lymphocytes from Mdr1a/b(-/)- mice; assay type: functional; details: lymphocyte
Multidrug resistance-associated protein 1, sequence (O35379 whole entry): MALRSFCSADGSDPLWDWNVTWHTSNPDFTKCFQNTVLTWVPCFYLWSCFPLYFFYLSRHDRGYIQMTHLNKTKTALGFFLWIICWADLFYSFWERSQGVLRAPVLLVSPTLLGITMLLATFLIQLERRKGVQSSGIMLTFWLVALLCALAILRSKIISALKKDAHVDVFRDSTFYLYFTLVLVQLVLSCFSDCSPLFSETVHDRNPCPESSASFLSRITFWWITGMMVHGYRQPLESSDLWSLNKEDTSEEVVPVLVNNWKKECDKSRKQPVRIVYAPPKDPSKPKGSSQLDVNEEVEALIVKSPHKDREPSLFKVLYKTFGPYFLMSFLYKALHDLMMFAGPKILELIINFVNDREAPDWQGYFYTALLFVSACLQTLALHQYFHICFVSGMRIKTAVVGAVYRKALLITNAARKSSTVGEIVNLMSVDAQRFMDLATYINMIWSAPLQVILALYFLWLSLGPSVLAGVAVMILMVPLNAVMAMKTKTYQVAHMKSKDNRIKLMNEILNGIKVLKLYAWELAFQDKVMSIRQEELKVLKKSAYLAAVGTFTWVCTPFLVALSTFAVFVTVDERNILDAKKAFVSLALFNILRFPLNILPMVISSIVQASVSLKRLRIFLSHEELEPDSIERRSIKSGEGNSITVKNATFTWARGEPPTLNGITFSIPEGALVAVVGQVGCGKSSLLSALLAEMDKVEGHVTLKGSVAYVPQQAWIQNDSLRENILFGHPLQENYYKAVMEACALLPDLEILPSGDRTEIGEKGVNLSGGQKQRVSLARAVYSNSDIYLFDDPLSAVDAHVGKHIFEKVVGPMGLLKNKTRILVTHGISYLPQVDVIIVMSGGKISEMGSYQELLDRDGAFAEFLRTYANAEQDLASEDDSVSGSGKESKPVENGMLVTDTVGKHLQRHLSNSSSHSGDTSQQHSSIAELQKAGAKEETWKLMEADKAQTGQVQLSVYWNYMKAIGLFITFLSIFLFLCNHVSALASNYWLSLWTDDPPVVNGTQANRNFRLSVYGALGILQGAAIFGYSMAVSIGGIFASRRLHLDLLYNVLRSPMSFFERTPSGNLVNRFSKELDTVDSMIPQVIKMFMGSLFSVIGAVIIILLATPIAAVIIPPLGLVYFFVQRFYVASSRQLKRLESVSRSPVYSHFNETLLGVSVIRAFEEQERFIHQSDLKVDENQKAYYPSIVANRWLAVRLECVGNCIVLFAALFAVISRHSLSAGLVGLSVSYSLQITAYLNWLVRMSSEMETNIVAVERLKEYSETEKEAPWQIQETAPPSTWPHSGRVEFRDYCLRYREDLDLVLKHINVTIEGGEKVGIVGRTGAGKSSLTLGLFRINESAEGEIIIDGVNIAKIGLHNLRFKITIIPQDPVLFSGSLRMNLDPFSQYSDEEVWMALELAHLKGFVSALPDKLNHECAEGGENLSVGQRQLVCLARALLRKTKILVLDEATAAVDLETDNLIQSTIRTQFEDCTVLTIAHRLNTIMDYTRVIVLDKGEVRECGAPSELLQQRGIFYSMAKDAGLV

ATP-dependent translocase ABCB1, sequence (P08183 whole entry): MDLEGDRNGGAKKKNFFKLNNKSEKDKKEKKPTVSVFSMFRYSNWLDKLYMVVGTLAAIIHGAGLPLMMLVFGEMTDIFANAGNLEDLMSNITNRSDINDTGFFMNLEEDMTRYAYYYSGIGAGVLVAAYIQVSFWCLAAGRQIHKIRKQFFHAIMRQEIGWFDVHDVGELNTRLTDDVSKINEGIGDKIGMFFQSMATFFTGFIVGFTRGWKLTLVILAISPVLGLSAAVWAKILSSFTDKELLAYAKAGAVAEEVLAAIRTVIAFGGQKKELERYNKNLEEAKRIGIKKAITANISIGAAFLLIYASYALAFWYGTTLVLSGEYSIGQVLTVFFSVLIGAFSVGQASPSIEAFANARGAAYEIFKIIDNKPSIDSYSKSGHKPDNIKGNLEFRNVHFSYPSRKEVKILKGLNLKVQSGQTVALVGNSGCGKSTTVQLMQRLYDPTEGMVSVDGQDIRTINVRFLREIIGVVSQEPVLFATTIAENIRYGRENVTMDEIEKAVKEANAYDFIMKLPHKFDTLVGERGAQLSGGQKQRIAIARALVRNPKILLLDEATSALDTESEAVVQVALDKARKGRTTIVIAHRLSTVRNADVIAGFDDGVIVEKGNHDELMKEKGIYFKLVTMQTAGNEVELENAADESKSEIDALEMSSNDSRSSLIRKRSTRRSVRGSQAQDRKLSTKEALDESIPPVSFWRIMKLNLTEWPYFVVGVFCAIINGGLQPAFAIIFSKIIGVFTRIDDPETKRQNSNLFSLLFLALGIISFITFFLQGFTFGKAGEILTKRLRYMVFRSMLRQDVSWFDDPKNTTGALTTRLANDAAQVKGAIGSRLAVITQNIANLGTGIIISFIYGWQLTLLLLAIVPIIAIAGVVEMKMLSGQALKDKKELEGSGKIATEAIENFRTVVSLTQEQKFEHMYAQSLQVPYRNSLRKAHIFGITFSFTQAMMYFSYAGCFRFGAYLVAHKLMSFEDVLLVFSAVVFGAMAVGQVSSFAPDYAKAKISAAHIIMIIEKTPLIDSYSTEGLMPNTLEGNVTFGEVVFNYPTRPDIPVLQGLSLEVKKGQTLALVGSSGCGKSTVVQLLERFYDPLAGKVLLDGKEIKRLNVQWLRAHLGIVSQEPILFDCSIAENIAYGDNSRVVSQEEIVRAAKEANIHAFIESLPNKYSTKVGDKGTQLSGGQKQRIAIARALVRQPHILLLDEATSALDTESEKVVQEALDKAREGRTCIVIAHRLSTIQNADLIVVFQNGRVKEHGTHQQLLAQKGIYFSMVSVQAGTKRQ

SMILES: CC[C@H](CC[C@@H](C)[C@H]1CC[C@H]2[C@@H]3CC=C4C[C@@H](O)CC[C@]4(C)[C@H]3CC[C@]12C)C(C)C [BETA-SITOSTEROL]
- Activity [1]: is not a substrate [-]
- Activity [2]: is not an inhibitor [-]
- Activity [3]: is not a substrate [-]
- Activity [4]: is not a substrate [-]
